{"source": "paper PMC12769565", "about": "“Design, synthesis and biological activity of glycoconjugated ADAMTS5 exosite inhibitors: applications in osteoarthritis and ovarian cancer models” (Scientific Reports, 2025)", "tested_on": "porcine cartilage explants", "experiment": "Cell viability MTS assay", "type": "cell-based, pig", "conditions": "100 µM; 72 h; vs DMSO control", "procedure": "Porcine articular cartilage from the joints of 3–9 month old pigs was supplied by a local abattoir within 2 h of slaughter and dissected into small pieces approximately 3 mm long and 3–4 mm wide. Each piece weighed roughly 10 mg. After dissection, the cartilage was allowed to acclimatize for 24 h at 37 °C under 5% CO2 in Dulbecco’s Modified Eagle Medium (DMEM) containing 100 U/ml penicillin, 100 µg/ml streptomycin, 10% fetal bovine serum (FBS).\nCell viability was assessed using CellTiter® 96 Aqueous One Solution Cell Proliferation Assay (Promega, G3582) following the manufacturer’s protocol. The assay is based on the reduction of [3-(4,5-dimethylthiazol-2-yl)-5-(3-carboxymethoxyphenyl)-2-(4-sulfophenyl)-2 H-tetrazolium] (MTS) and phenazine ethosulfate into formazan. Compounds 2 and 4b, GM6001 (Merck, 364206) (10–100 µM), or DMSO control were incubated in 48-well Nunc™ plates (Thermo Fisher Scientific,150687) with HEK293T cells, human non-OA chondrocytes, porcine cartilage explants, or human OA cartilage explants for 72 h. At least 3 independent experiments were carried out with 3 technical replicates each. For experiments involving human samples, independent experiments were carried out on 3 different donors. Absorbance at 490 nm was measured on a SpectraMax i3x Multi-Mode Platform (Molecular Devices). Cell viability was normalized to DMSO controls."}
{"smiles": "CCC(C)N(Cc1cn(CCCO[C@@H]2O[C@H](CO)[C@@H](O[C@@H]3O[C@H](CO)[C@H](O)[C@H](O)[C@H]3O)[C@H](O)[C@H]2NC(C)=O)nn1)S(=O)(=O)c1ccc(-c2ccccc2)cc1", "note": "(stereo partly drawn) [compound 2, N-((2R,3R,4R,5 S,6R)-2-(3-(4-((N-(sec-butyl)-[1,1’-biphenyl]-4-sulfonamido)methyl)-1H-1,2,3-triazol-1-yl)propoxy)-4-hydroxy-6-(hydroxymethyl)-5-(((2 S,3R,4 S,5R,6R)-3,4,5-trihydroxy-6-(hydroxymethyl)tetrahydro-2 H-pyran-2-yl)oxy)tetrahydro-2 H-pyran-3-yl)acetamide]", "values": [{"measurement": "decrease of cell viability", "result": "did not exhibit cytotoxicity"}]}
